Measurements published in ChEMBL document CHEMBL3393038, “Prenylated flavonoids and resveratrol derivatives isolated from Artocarpus communis with the ability to overcome TRAIL resistance” (2015).
Activity calls are given as the source filed them. The rule behind the calls is not given here.

Key:
AGS [1] = experiment: Induction of apoptosis in TRAIL-resistant human AGS cells assessed as decrease in cell viability at 2 uM after 24 hrs in presence of TRAIL (reference value: 9%); type: functional
AGS [2] = experiment: Induction of apoptosis in TRAIL-resistant human AGS cells assessed as decrease in cell viability at 40 uM after 24 hrs in presence of TRAIL (reference value: 9%); type: functional
AGS [3] = experiment: Induction of apoptosis in TRAIL-resistant human AGS cells assessed as decrease in cell viability at 7.5 uM after 24 hrs in presence of TRAIL (reference value: 9%); type: functional
AGS [4] = experiment: Induction of apoptosis in TRAIL-resistant human AGS cells assessed as ROS-mediated increase in death receptor 5 protein level at 3 uM after 6 hrs pretreated with NAC by Western blotting analysis; type: functional, cell-based
AGS [5] = experiment: Induction of apoptosis in TRAIL-resistant human AGS cells assessed as fold increase in caspase 3/7 at 5 uM after 24 hrs by Caspase-Glo 3/7 assay kit; type: functional
AGS [6] = experiment: Induction of apoptosis in TRAIL-resistant human AGS cells assessed as decrease in cell viability at 3 uM after 24 hrs in presence of TRAIL (reference value: 9%); type: functional
AGS [7] = experiment: Induction of apoptosis in TRAIL-resistant human AGS cells assessed as increase in death receptor 5 protein level at 3 uM after 6 hrs by Western blotting analysis; type: functional
AGS [8] = experiment: Induction of mitochondrial membrane depolarization in human AGS cells assessed as depolarized cells after 24 hrs by JC-1 staining-based flow cytometric analysis (reference value: 27.1%); type: functional
AGS [9] = experiment: Induction of apoptosis in TRAIL-resistant human AGS cells assessed as population of apoptotic cells after 6 hrs by annexin-V-FLOUS/ propidium iodide staining based flow cytometry in presence of pan-caspase inhibitor z-VAD-FMK; type: functional
AGS [10] = experiment: Induction of apoptosis in TRAIL-resistant human AGS cells assessed as population of apoptotic cells after 6 hrs by annexin-V-FLOUS/ propidium iodide staining based flow cytometry in presence of TRAIL; type: functional
AGS [11] = experiment: Induction of apoptosis in TRAIL-resistant human AGS cells assessed as fold increase in caspase 3/7 at 3 uM after 24 hrs by Caspase-Glo 3/7 assay kit in presence of TRAIL; type: functional
AGS [12] = experiment: Induction of apoptosis in TRAIL-resistant human AGS cells assessed as increase in p53 protein level at 3 uM after 6 hrs by Western blotting analysis; type: functional, cell-based
AGS [13] = experiment: Induction of apoptosis in TRAIL-resistant human AGS cells assessed as fold increase in caspase 3/7 at 3 uM after 24 hrs by Caspase-Glo 3/7 assay kit; type: functional
AGS [14] = experiment: Induction of apoptosis in TRAIL-resistant human AGS cells assessed as population of apoptotic cells after 6 hrs by annexin-V-FLOUS/ propidium iodide staining based flow cytometry; type: functional
AGS [15] = experiment: Induction of apoptosis in TRAIL-resistant human AGS cells assessed as fold increase in caspase 3/7 at 5 uM after 24 hrs by Caspase-Glo 3/7 assay kit in presence of TRAIL; type: functional
AGS [16] = experiment: Induction of apoptosis in TRAIL-resistant human AGS cells assessed as decrease in cell viability at 10 uM after 24 hrs in presence of TRAIL (reference value: 9%); type: functional
AGS [17] = experiment: Induction of apoptosis in TRAIL-resistant human AGS cells assessed as decrease in cell viability at 17.5 uM after 24 hrs in presence of TRAIL (reference value: 9%); type: functional
AGS [18] = experiment: Induction of apoptosis in TRAIL-resistant human AGS cells assessed as decrease in cell viability at 20 uM after 24 hrs in presence of TRAIL (reference value: 9%); type: functional
AGS [19] = experiment: Induction of apoptosis in TRAIL-resistant human AGS cells assessed as decrease in cell viability at 5 uM after 24 hrs in presence of TRAIL (reference value: 9%); type: functional

CC(C)=CCc1c2c(c3oc(-c4cc(O)c(O)cc4O)c(CC=C(C)C)c(=O)c3c1O)C=CC(C)(C)O2
Activity (AGS [1]): 46%

CC(C)=CCc1c(-c2cc(O)c(O)cc2O)oc2c(CC=C(C)C)c3c(c(O)c2c1=O)C=CC(C)(C)O3 [HETEROPHYLLIN]
Activity (AGS [1]): 31%

COc1c(/C=C/c2cc(O)cc(O)c2)cc(CC=C(C)C)c(O)c1CC=C(C)C
Activity (AGS [2]): 40%

CC(C)=CCc1c(O)c(CC=C(C)C)c2oc(-c3cc(O)c(O)cc3O)c(CC=C(C)C)c(=O)c2c1O
Activity (AGS [3]): 30%

CC(C)=CCc1c(-c2cc(O)c(O)cc2O)oc2c3c(cc(O)c2c1=O)OC(C)(C)C=C3 [ARTONIN E]
Activity (AGS [4]): inactive
fold change (FC) (AGS [5]): 11.1
Activity (AGS [6]): 44%
fold change (FC) (AGS [7]): 1.9
Activity (AGS [8]): 58.4%
inhibition (INH) (AGS [9]): 2.9%
inhibition (INH) (AGS [10]): 32.7%
fold change (FC) (AGS [11]): 12.2
Activity (AGS [12]): Active
fold change (FC) (AGS [13]): 3.7
inhibition (INH) (AGS [14]): 3.6%
fold change (FC) (AGS [15]): 34.3

C=C(C)[C@H]1Cc2c(oc3c4c(cc(O)c3c2=O)OC(C)(C)C=C4)-c2c(O)cc(O)c(O)c21 [ARTOBILOXANTHONE]
Activity (AGS [16]): 32%

CC(C)=CCc1c(-c2ccc(O)cc2O)oc2cc3c(c(O)c2c1=O)C=CC(C)(C)O3 [CUDRAFLAVONE B]
Activity (AGS [2]): 27%

C=C(C)[C@H]1Cc2c(oc3c(CC=C(C)C)c(O)c(CC=C(C)C)c(O)c3c2=O)-c2c(O)cc(O)c(O)c21 [ARTORIGIDIN A]
Activity (AGS [3]): 26%

O=c1cc(-c2ccc(O)c(O)c2)oc2cc(O)cc(O)c12 [LUTEOLIN]
Activity (AGS [17]): 9%

CC(C)=CCc1cc(/C=C/c2cc(O)cc(O)c2)cc(CC=C(C)C)c1O
Activity (AGS [18]): 25%

CC(C)=CCC/C(C)=C/Cc1c(O)c(CC=C(C)C)c(O)c2c(=O)c(CC=C(C)C)c(-c3cc(O)c(O)cc3O)oc12
Activity (AGS [19]): 30%

CC(C)=CCc1c(-c2ccc(O)cc2O)oc2c3c(cc(O)c2c1=O)OC(C)(C)C=C3 [MORUSIN]
Activity (AGS [2]): 25%
